One assay deals with T1, c-KIT V560G/D816V (Homo sapiens, UniProt P10721, D816V/V560G).
T1 construct: purchased Promega VA7063
Put plainly: ADP-Glo kinase assay on c-KIT V560G/D816V. In kind it is biochemical. The note with it: for IC50: ADP-Glo kinase assay, 10 μM ATP; for fold higher enzymatic inhibitory activity against c-KIT V560G/D816V compared with imatinib: versus imatinib. As for the experimental part: (§1) Biochemical kinase assays on c-KIT protein kinase were performed at Reaction Biology Corp. (San Diego, CA, USA). […] The kinase assay followed the manufacturer’s instruction. IC50 values were calculated by GraphPad prism 8.0 software (GraphPad Software, San Diego, CA, USA).
On the technique in general: ADP-Glo first removes unused ATP, then detects ADP through luciferase.

Assay [1] relates to c-KIT D816V Ba/F3 cells. Put plainly: Apoptosis analysis (annexinV/PI flow cytometry). It counts as cell-based. The note with it: c-KIT D816V Ba/F3, 1 μM. As for the experimental part:
(§2) After compound treatment in GIST-T1 and HMC1.2 cells for 24 h, cells were fixed with 70% cold ethanol. Then, cells were incubated with 50 μg propidium iodide/mL solution (PI, Sigma) containing 1 mg RNase A/mL for 30 min in the dark. Cell cycle arrest was analyzed (BD Accuri), and data were processed using BD Accuri^TM C6 software. For apoptosis analysis, compound treatment for 24–48 h, cells were harvested and stained with annexinV and PI solution. 1 × 10^5 cells were analyzed using flow cytometric analysis.
(A flow cytometer gives signals particle by particle.)

For assay [2], the system named is HMC1.2 cells. Put plainly: Cell viability assay (CellTiter-Glo). The note with it: Homo sapiens, 72 h. It counts as cell-based, human. As for the experimental part: (§3) GIST-T1 (Cosmobio, Tokyo, Japan, # PMC-GIST01C-COS) cells were cultured in DMEM (Welgene, # LM001-05) and HMC1.2 (Merck, Darmstadt, Germany, # SCC062) cells were cultured in IMDM (Welgene, # LM004-01). Parental Ba/F3 (DSMZ, Braunschweig, Germany, # ACC300) cells were cultured in RPMI (Welgene, # LM011-51) with 10 ng IL-3/mL (Enzo, # ALX-201-821). The culture media was supplemented with 10% fetal bovine serum and 1% penicillin/streptomycin solution. The cells were maintained in a humidified atmosphere containing 5% CO2 at 37 °C.
(§4) Cells (GIST-T1: 5.0 × 10^3; HMC1.2: 1 × 10^4) were seeded in 96-well plates. Each compound was treated in each well at 10 dose points of 3-fold serial dilution. After treatment with each compound for 72 h, CellTiter-Glo solution (Promega, # G7572) was added to each well. Anti-proliferation activity was measured the luminescence using a 96-well plate reader (EnVision 2013).
(Cellular ATP, detected with luciferase, serves as a proxy for viable cell number.)

The subject of a further assay is parental Ba/F3 cells. Kind of assay: Anti-proliferative activity on Ba/F3 cells. It counts as cell-based. To be noted: Mus musculus, BaF3. How it is done:
as §3, §4

The subject of assay [3] is c-KIT D816V Ba/F3 cells. Kind of assay: Cell cycle arrest analysis (PI flow cytometry). In kind it is cell-based. To be noted: c-KIT D816V Ba/F3, 0.5 μM, 24 h.
For assay [4], the system named is HMC1.2 cells. Put plainly: Cell cycle arrest analysis (PI flow cytometry). It counts as cell-based, human. The note with it: HMC1.2, 0.5 μM, 24 h. As for the experimental part: as §2
The subject of assay [5] is GIST-T1 cells. Kind of assay: Cell cycle arrest analysis (PI flow cytometry). To be noted: GIST-T1, 0.01 μM. In kind it is cell-based, human. How it is done:
as §2

In assay [6] the test system is GIST-T1 cells. Put plainly: Cell viability assay (CellTiter-Glo). In kind it is cell-based. To be noted: Homo sapiens, GISTT1; 72 h; concentration causing half-maximal growth inhibition. How it is done:
as §3, §4

For assay [7], the system named is c-KIT D816V Ba/F3 cells. Kind of assay: Anti-proliferative activity on Ba/F3 cells. In kind it is cell-based. The note with it: Mus musculus, BaF3.
The subject of assay [8] is GIST-T1 cells. Kind of assay: Migration (wound healing) assay. In kind it is cell-based, human. To be noted: GIST-T1, 0.005 μM and 0.05 μM, 36 h. As for the experimental part: GIST-T1 cells were seeded in 6-well plates at 2 × 10^6 cells. Next day, cells were washed with PBS and wounded in the center of each well. Then, GIST-T1 cells were washed with PBS and added to fresh DMEM.

Assay [9] concerns GIST-T1 cells. Put plainly: Invasion assay (Transwell). To be noted: GIST-T1, 0.05 μM, 48 h. In kind it is cell-based, human. As for the experimental part: The cell invasion assay was performed using Transwell membrane filter inserts (Corning Costar Corp., Corning, NY, USA). GIST-T1 cells were then suspended in serum-free DMEM at 2 × 10^6 cells and seeded in the upper chambers. In the lower chambers, the DMEM medium containing 10% FBS was added. After 48 h, the cells migrating down the membrane were stained with crystal violet.

Assay [10] deals with HMC1.2 cells. Put plainly: Apoptosis analysis (annexinV/PI flow cytometry). In kind it is cell-based, human. To be noted: HMC1.2, 1 μM, 48 h. As for the experimental part: as §2
Assay [11] relates to GIST-T1 cells. Put plainly: Apoptosis analysis (annexinV/PI flow cytometry). In kind it is cell-based, human. The note with it: GIST-T1, 0.05 μM. How it is done: as §2
The target in the next assay is c-KIT (Homo sapiens, UniProt P10721). Kind of assay: Radiometric biochemical kinase assay on c-KIT. To be noted: read-out: IC50 against c-KIT. Details: purchased Reaction Biology Corp. (contract assay service). As for the experimental part: as §1
Enzymatic inhibitory activities of all synthesized thiazolo[5,4-b]pyridine derivatives against c-KIT were measured using radiometric biochemical kinase assays (Table 1). We first explored the R1 group of the thiazolo[5,4-b]pyridine scaffold.

Assay [12] has as its system c-KIT auto-phosphorylation in HMC1.2 cells. Put plainly: Western blot of c-KIT signaling. It counts as cell-based, human. The note with it: 10 μM. How it is done: (§5) Cells were harvested and lysed using RIPA buffer containing 50 mM HEPES (pH 7.4), 1% Triton X-100, 2 mM EDTA, 150 mM NaCl, 2.5 mM NaF, 5 mM Na3VO4, and protease inhibitor cocktail tablet (Roche, # 11–878-580–001). Proteins were separated and transferred to an NC membrane. The membranes were blocked using 5% skim milk in TBS-T buffer. The p-c-KIT (Tyr703, # 3073), p-AKT (Ser473, # 9271), p-ERK (Thr202/Tyr204, # 8544), ERK (# 4695), p-PLCγ (Tyr783, # 14008), p-STAT3 (Tyr705, # 4074), and PARP (# 9542) antibodies were obtained from Cell Signaling Technologies. The β-actin (# sc-47778) and STAT3 (# sc-482) antibodies were obtained from Santa Cruz Biotechnology. AKT (A18120) antibody was purchased from ABclonal. Each primary antibody was incubated overnight at 4 °C. The secondary antibody (GenDEPOT) was incubated for 1 h at room temperature. Proteins were detected using ECL substrate.

The subject of assay [13] is phosphorylated c-KIT (Tyr703) and downstream signaling in GIST-T1 cells. Kind of assay: Western blot of c-KIT signaling. In kind it is cell-based, human. As for the experimental part: as §5
Assay [14] deals with c-KIT auto-phosphorylation in c-KIT D816V Ba/F3 cells. Kind of assay: Western blot of c-KIT signaling. It counts as cell-based. To be noted: 10 μM. How it is done:
as §5

The test system of a further assay is GIST. Details: method as in PMID 32601076. To be noted: fourth-line treatment; cited from earlier work.
Assay [15] concerns GIST-T1 cells. Kind of assay: Soft agar assay (anchorage-independent growth). In kind it is cell-based, human. To be noted: GIST-T1, two different concentrations, 3 weeks. As for the experimental part:
Anchorage-independent growth was assessed by determining colony formation on soft agar. GIST-T1 cells in DMEM media containing 0.7% agar were plated at 5,000 cells per well. Cells were treated with each compound for 3 weeks, and the media were changed every 3 days. Colonies were stained using iodonitrotetrazolium chloride (Sigma Aldrich). The average number colonies were counted using ImageJ software (version 1.53e, National Institutes of Health, Bethesda, MD, USA)

As for `Cc1ccc(NC(=O)c2ccc(CN3CCNCC3)c(C(F)(F)F)c2)cc1-c1cnc2sc(N)nc2c1` [6s], the half-maximal inhibitory concentration (IC50) on c-KIT V560G/D816V was 7670 ± 2640 nM; on c-KIT, 370 nM. The “fold higher enzymatic inhibitory activity against c-KIT V560G/D816V compared with imatinib” value on c-KIT V560G/D816V is on record as 4.9- to 8.0 fold. Besides, the “production of apoptotic cells” value with c-KIT D816V Ba/F3 cells [1], in the assay on HMC1.2 cells [10] and in the assay with GIST-T1 cells [11] was “remarkably induced” each time. Further, the GI50 in the assay with HMC1.2 cells [2] was 1330 ± 430 nM; in the assay on parental Ba/F3 cells, 10500 ± 3590 nM; in the assay on GIST-T1 cells [6] it was 20 nM; in the assay on c-KIT D816V Ba/F3 cells [7] it was 1060 ± 150 nM. Further, the “G0/G1 arrest compared with imatinib” value in the assay with c-KIT D816V Ba/F3 cells [3] and in the assay on HMC1.2 cells [4] was “more strongly” each time. In the assay on GIST-T1 cells [5], the “G0/G1 arrest induced compared to control” value is listed as 25–35%. Moreover, the “cell migration decreased compared to control” value with GIST-T1 cells [8] was 50–70%. In addition, the invasion capability result in the assay with GIST-T1 cells [9] is given as “significantly suppressing”. The c-KIT auto-phosphorylation result in assay [12] and in assay [14] was “completely inhibited” in each case. Also, the “levels of phosphorylated c-KIT (Tyr703) and downstream mediators p-AKT, p-ERK, p-PLCγ, p-STAT3” value (shortened to “levels of phosphorylated c-KIT … p-STAT3”) in assay [13] was “remarkably inhibited”.

For the compound `CC(=O)Nc1nc2cc(-c3cc(NC(=O)c4ccc(CN5CCN(C)CC5)c(C(F)(F)F)c4)ccc3C)cnc2s1` [7c], the results for the IC50 at c-KIT V560G/D816V and at c-KIT were 5070 ± 710 nM and 100 nM, respectively. The “fold higher enzymatic inhibitory activity against c-KIT V560G/D816V compared with imatinib” value at c-KIT V560G/D816V is 4.9- to 8.0 fold. Also, the “production of apoptotic cells” value with c-KIT D816V Ba/F3 cells [1], in the assay with HMC1.2 cells [10] and in the assay with GIST-T1 cells [11] was “remarkably induced” in each case. Moreover, the GI50 turned out to be 1520 ± 430 nM in the assay with HMC1.2 cells [2], 10500 ± 3440 nM in the assay on parental Ba/F3 cells, 10 nM with GIST-T1 cells [6] and 530 ± 60 nM in the assay with c-KIT D816V Ba/F3 cells [7]. For the same compound, the “G0/G1 arrest compared with imatinib” value in the assay with c-KIT D816V Ba/F3 cells [3] and in the assay with HMC1.2 cells [4] was “more strongly” throughout. Moreover, in the assay with GIST-T1 cells [5], the “G0/G1 arrest induced compared to control” value was 25–35%. In the assay with GIST-T1 cells [8], the “cell migration decreased compared to control” value was 50–70%. Further, the invasion capability result in the assay with GIST-T1 cells [9] is “significantly suppressing”. In addition, the c-KIT auto-phosphorylation result in assay [12] and in assay [14] was “completely inhibited” in each case. Moreover, the “levels of phosphorylated c-KIT … p-STAT3” value in assay [13] is recorded as “remarkably inhibited”.

Turning to `CCn1c(=O)c(-c2cc(NC(=O)Nc3ccccc3)c(F)cc2Br)cc2cnc(NC)cc21` [Ripretinib], the overall response rate in the assay with GIST is on record as 9.4%.

With `Cc1ccc(NC(=O)c2ccc(CN3CCN(C)CC3)cc2)cc1Nc1nccc(-c2cccnc2)n1` [imatinib, reference compound], the 50% growth inhibitory concentration (GI50) with HMC1.2 cells [2] stood at 27100 ± 3360 nM; in the assay with parental Ba/F3 cells, 17000 ± 200 nM; in the assay with c-KIT D816V Ba/F3 cells [7], 12200 ± 2060 nM. In the assay on GIST-T1 cells [5], the “G0/G1 arrest induced compared to control” value is on record as 25–35%. Besides, in the assay with HMC1.2 cells [10], the “production of apoptotic cells” value is “did not induce apoptosis”. For the same compound, the “levels of phosphorylated c-KIT … p-STAT3” value in assay [13] is “remarkably inhibited”. Besides, in the assay on GIST-T1 cells [15], the anchorage-independent growth entry is on record as “dramatic inhibition”.

A word on the IC50: it is the concentration that inhibits the measured activity by half. By GI50 is commonly meant the concentration that inhibits growth by half.
